From patent US10385113B2, “Engineered FGF compositions and methods of use thereof” (THE BOARD OF TRUSTEES OF THE UNIVERSITY OF ARKANSAS, priority 2016, dated 2019) come the findings set out here.

Assay [1] deals with T1, human FGF-1 (hFGF-1), wild type (wtFGF-1), SEQ ID NO: 2 (Homo sapiens, UniProt P05230).
T1 construct: made in house
As to the kind of experiment: Isothermal titration calorimetry (ITC) of wild-type FGF-1 with SOS. Type of assay: binding. The settings on record: FIG. 10A. On the procedure: (§1) For WT hFGF-1, and mutant proteins were in the cell and at a concentration of 0.05 mM in a buffer of 10 mM phosphate, 100 mM NaCl, 50 mM ammonium sulfate, pH 6.5. […] The data was analyzed using Origin scientific plotting software.
(§2) ITC is a method used to directly evaluate the affinity and enthalpy of binding reactions.

Assay [2] concerns the target T2, human FGF-1 (hFGF-1) mutant R136E, SEQ ID NO: 4 (Homo sapiens, UniProt P05230, R137E).
T2 construct: made in house
As to the kind of experiment: Isothermal titration calorimetry (ITC) of FGF-1 mutant R136E with SOS. Type of assay: binding. The settings on record: 10 mM phosphate, 100 mM NaCl, 50 mM ammonium sulfate, pH 6.5, 25° C., FIG. 10C, read-out: dissociation constant (Kd). On the procedure:
as §1, §2
Background: Isothermal titration calorimetry measures the heat released or taken up as one component is titrated into another.

What is called Kd is the free concentration of one partner at which half of the binding sites on the other are occupied at equilibrium, for simple one-to-one binding.

T1 sequence (P05230 16-155): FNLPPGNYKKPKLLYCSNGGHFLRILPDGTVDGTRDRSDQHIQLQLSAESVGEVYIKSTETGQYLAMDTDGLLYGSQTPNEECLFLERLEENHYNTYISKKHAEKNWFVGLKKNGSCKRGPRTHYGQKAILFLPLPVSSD
T2 sequence (P05230 16-155 R137E): as the sequence (P05230 16-155) above, with R122E counted along it

For `O=S(=O)(O)OC[C@H]1O[C@@](COS(=O)(=O)O)(O[C@H]2O[C@H](COS(=O)(=O)O)[C@@H](OS(=O)(=O)O)[C@H](OS(=O)(=O)O)[C@H]2OS(=O)(=O)O)[C@@H](OS(=O)(=O)O)[C@@H]1OS(=O)(=O)O` [SOS, sucrose octasulfate], the Kd was 2600 nM in assay [1] (10 mM phosphate, 100 mM NaCl, 50 mM ammonium sulfate, pH 6.5, 25° C., read-out: dissociation constant (Kd)) and 72.4 µM in assay [2]. In assay [1] (compared with R136E, result in words), the “affinity to SOS (binding isotherm)” value is “strong affinity”.
